The structures appear in SMILES notation.

The test system of one experiment is mice. The note with it: intraperitoneal dosing, wildtype mice; result in words. The protocol: The tactile hypersensitivity of 5-6 mice per group was scored every five minutes between 15 and 50 minutes following intraperitoneal dosing. […] In addition, the locomoter activity of 5-6 mice per group was measured in a five minute period 30 minutes following intraperitoneal dosing. The locomoter activity relative to vehicle-treated animals was expressed as a percentage; percentage sedation was calculated as 100% minus the percent locomoter activity.

A further experiment concerns the target T1, human α-2A receptor (Homo sapiens, UniProt P08913).
T1 sequence (P08913 1-465): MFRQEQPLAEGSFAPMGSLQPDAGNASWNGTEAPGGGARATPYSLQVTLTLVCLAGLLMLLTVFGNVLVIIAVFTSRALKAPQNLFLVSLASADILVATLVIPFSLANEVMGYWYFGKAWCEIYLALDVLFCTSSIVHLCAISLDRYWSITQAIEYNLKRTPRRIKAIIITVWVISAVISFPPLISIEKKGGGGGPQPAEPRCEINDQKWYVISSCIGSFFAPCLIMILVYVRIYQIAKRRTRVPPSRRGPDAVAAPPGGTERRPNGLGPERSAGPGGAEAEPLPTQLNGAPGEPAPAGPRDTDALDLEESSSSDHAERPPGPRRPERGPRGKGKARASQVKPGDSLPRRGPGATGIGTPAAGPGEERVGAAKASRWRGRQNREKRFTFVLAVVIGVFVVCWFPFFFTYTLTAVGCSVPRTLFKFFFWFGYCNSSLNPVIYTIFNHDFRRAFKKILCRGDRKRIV
The note with it: percent efficacy relative to brimonidine. The method, then: The human α-2A and α-2C receptor supernatants were added, in varying amounts, to naive PC12 cells, which were then incubated for 48 hours. The transduced cell populations were replated at a lower density and grown in media containing 100 ug/ml puromycin.
Intracellular cAMP measurement was performed as follows. PC12 cells stably expressing the human α-2A or human α-2C adrenergic receptors were plated in 96-well poly-D-lysine coated plates at a density of 30,000 cells per well in 100 μl DMEM supplemented with 10% horse serum, 5% heat inactivated fetal bovine serum, 1% antibiotic-antimycotic and 100 μg/ml puromycin. Cells were grown overnight at 37° C. and 5% CO2. Cells were dosed by adding an equal volume of media containing IBMX (to a final concentration of 1 mM), forskolin (to a final concentration of 10 μM) and the appropriate drug dilution (to a final concentration of between 10^−5 M and 10^−12 M). After a 10 minute incubation, the media was aspirated and the cells lysed with 200 μl lysis buffer (Amersham Biosciences; Piscataway, N.J.). Plates were stored at −20° C. for up to 24 hours prior to assay. Intracellular cAMP was determined using the Biotrak cAMP enzyme immunoassay system (Amersham Biosciences) according to the manufacturer's instructions. Plates were read on a plate reader at 450 nm.

Experiment [1] concerns the target T2, hamster α-1B adrenergic receptor (Mesocricetus auratus, UniProt P18841).
T2 sequence (P18841 1-515): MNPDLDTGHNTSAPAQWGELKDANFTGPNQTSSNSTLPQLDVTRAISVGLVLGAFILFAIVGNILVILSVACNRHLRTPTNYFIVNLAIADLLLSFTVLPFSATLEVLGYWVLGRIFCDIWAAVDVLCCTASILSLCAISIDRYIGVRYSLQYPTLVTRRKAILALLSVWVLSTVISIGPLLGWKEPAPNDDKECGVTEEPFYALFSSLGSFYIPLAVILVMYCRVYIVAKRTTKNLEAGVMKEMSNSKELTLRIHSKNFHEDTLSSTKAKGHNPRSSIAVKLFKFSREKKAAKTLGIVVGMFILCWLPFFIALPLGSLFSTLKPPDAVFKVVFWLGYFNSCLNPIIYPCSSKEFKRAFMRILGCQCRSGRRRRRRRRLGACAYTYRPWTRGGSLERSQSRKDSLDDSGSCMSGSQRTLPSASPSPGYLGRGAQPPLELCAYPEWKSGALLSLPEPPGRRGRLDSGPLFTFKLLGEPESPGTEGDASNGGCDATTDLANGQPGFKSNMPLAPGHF
Type of experiment: cell-based. The note with it: for hamster α1B % E: percent efficacy relative to phenylephrine; for agonist activity at the α-1B receptor: result in words. The protocol: The bovine α-1A and hamster α-1B receptor supernatants were added, in varying amounts, to naive HEK293 cells, which were then incubated for 48 hours. The transduced cell populations were replated at a lower density and grown in media containing 0.25 ug/ml puromycin. […] Receptor density was measured in a prazosin radioligand binding assay.
Intracellular Ca^+2 responses were measured as follows in HEK293 cells stably expressing either the bovine α-1A or hamster α-1B adrenergic receptor. Between 40,000 to 50,000 cells were plated per well in 96-well poly-D-lysine coated plates in 0.2 ml DMEM containing 10% heat-inactivated fetal calf serum, 1% antibiotic-antimycotic and 0.25 μg/ml puromycin one day prior to use. Cells were washed twice with HBSS supplemented with 10 mM HEPES, 2.0 mM CaCl2 and 2.5 mM probenicid, and subsequently incubated at 37° C. for 60 minutes with 4 μM Fluo-4 (Molecular Probes; Eugene, Oreg.). The extracellular dye was washed from the plates twice prior to placing the plates in the fluorometric imaging plate reader (FLIPR; Molecular Devices; Sunnyvale, Calif.). Ligands were diluted in HBSS and aliquoted into a 96-well microplate. Drugs were tested over the concentration range of 0.64 nM to 10,000 nM. Data for Ca^+2 responses were obtained in arbitrary fluorescence units.

Regarding `Brc1c(NC2=NCCN2)ccc2nccnc12` [Brimonidine, 5-bromo-6-(2-imidazolin-2-ylamino)quinoxaline], the “alleviation of sulprostone-induced tactile hypersensitivity in the absence of sedation” value in the experiment with mice is “alleviates sulprostone-induced tactile hypersensitivity in the absence of sedation”. The “human α2A % E” value at human α-2A receptor is 91%. In addition, in experiment [1], the “hamster α1B % E” value was determined as 12% and the “agonist activity at the α-1B receptor” value is given as “no activity”.

`Clc1cccc(Cl)c1N=C1NCCN1` [Clonidine]: the “human α2A % E” value on human α-2A receptor is reported as 94%. In addition, in experiment [1], the “hamster α1B % E” value is recorded as 63% and the “agonist activity at the α-1B receptor” value was “partial agonists”.

The values are drawn from patent US20130217694A1, “METHOD OF REDUCING THE SEVERITY OF INFLAMMATORY DERMATOLOGICAL CONDITIONS” (Allergan, Inc.., priority 2003, published 2013).
